Patent US12655101B2, “Small molecules with antibacterial activity” (NEW MEXICO TECH UNIVERSITY RESEARCH PARK CORPORATION, priority 2021, dated 2026)
Converted amounts (≈) assume the structure as drawn. Like-named read-outs stand apart in the source and are kept apart here.

How the values were obtained:
[1] = system: A. baumannii ATCC BAA-1797; assay: MIC on A. baumannii ATCC BAA-1797; format: cell-based
Protocol: A. baumannii: A. baumannii ATCC BAA-1797 was grown from a glycerol stock by placing a small volume of cells onto a MHA plate. The MHA plate was incubated overnight at 37° C. A single colony was used to inoculate MHB to obtain a bacterial broth suspension. The MHB broth suspension was grown at 37° C. on a rotary shaking incubator (100 rpm) for 12 hours. The bacterial cell concentration was adjusted to ˜5×10^5 CFU/mL in MHB or MHB+10%, 20% or 40% FBS using OD at 595 nm. 500 μL aliquots of the adjusted bacterial cell suspension were placed into borosilicate glass tubes. The cell suspensions were treated with a compound of interest, and the treatments were serially diluted two-fold. The culture tubes were incubated for 18 hours at 37° C. Efficacy was either assessed visually or by adding 10% v/v MTT (5 mg/mL stock) after the 18 hour incubation period. The cell suspensions were subsequently incubated for 10 minutes to allow the MTT reagent to carry out the colorimetric reaction. The OD was read at 595 nm.

MRSA ATCC BAA-44 = assay: MIC on MRSA ATCC BAA-44; format: cell-based, S. aureus; settings: Staphylococcus aureus
Protocol: MRSA BAA-44: MRSA ATCC BAA-44 was grown from a glycerol stock by placing a small volume of cells onto a Mueller-Hinton agar plate (MHA). The MHA plate was incubated overnight at 37° C. A single colony was used to inoculate Mueller-Hinton broth (MHB) to obtain a bacterial broth suspension. The MHB broth suspension was grown at 37° C. on a rotary shaking incubator (100 rpm) for 12 hours. The bacterial cell concentration was adjusted to ˜5×10^5 colony forming units per milliliter (CFU/mL) in MHB−/+10, 20, or 40% FBS using optical density (OD) at 595 nm. 500 μL aliquots of the adjusted bacterial cell suspension were placed into borosilicate glass tubes. The cell suspensions were treated with 100 μM compound of interest and serially diluted two-fold. The culture tubes were incubated for 18 hours at 37° C. Efficacy was either assessed visually or by adding 10% v/v MTT (5 mg/mL stock) after the 18 hour incubation period, where the cell suspensions were subsequently incubated for 10 minutes to allow the MTT reagent to carry out the colorimetric reaction.

[2] = Acinetobacter baumannii, ATCC 1797 / ATCC BAA-1797, 0% FBS, read-out: MIC (μM) in MDR A. baumannii ATCC 1797 0% FBS
[3] = 10% FBS, read-out: MIC (μM) in MRSA BAA-44 10% FBS
[4] = Acinetobacter baumannii, ATCC 1797 / ATCC BAA-1797, 10% FBS, read-out: MIC (μM) in MDR A. baumannii ATCC 1797 10% FBS
[5] = Acinetobacter baumannii, ATCC 1797 / ATCC BAA-1797, read-out: MIC (μM) in MDR A. baumannii ATCC 1797 40% FBS, 40% FBS
[6] = no serum (note in the cell), read-out: MIC (μM) in MRSA BAA-44
[7] = Acinetobacter baumannii, ATCCBAA1797, 18 h, read-out: MIC in the presence of 40% FBS, A. baumannii ATCC BAA-1797, 40% FBS
[8] = Acinetobacter baumannii, ATCCBAA1797, A. baumannii ATCC BAA-1797, absence of serum, read-out: MIC in the absence of serum
[9] = in FBS (note in the cell, percentage not given), read-out: MIC (μM) in MRSA BAA-44

MIC [1, 2] [µM] | MIC (MRSA ATCC BAA-44; [3]) [µM] | MIC [1, 4] [µM] | MIC [1, 5] [µM] | SMILES | further results
50 (≈ 21.6 µg/mL) |  |  |  | Brc1ccc(/N=N/c2c[nH]c3cccc(Nn4nnc5ccccc54)c23)cc1 [Compound 1, (E)-N-(3-((4-bromophenyl)diazenyl)-1H-indol-4-yl)-1H-benzo[d][1,2,3]triazol-1-amine] | 
> 100 | > 100 |  |  | Cn1cc(/N=N/c2ccc(Br)cc2)c2c([N+](C)(C)C)cccc21 [Compound 2, (E)-3-((4-bromophenyl)diazenyl)-N,N,N,1-tetramethyl-1H-indol-4-aminium iodide] | 
> 100 |  | > 100 |  | O=[N+]([O-])c1ccc2[nH]cc(/N=N/c3ccc(Br)cc3)c2c1 [Compound 3, (E)-3-((4-bromophenyl)diazenyl)-5-nitro-1H-indole] | 
> 100 |  | > 100 |  | NC(=O)CC(N)C(=O)Nc1cccc2[nH]cc(/N=N/c3ccc(Br)cc3)c12 (centres unmarked) [Compound 5, (E)-2-amino-N^1-(3-((4-bromophenyl)diazenyl)-1H-indol-4-yl)succinamide] | 
25 (≈ 11.4 µg/mL) | 25 (≈ 11.4 µg/mL) | > 100 | 100 (≈ 45.7 µg/mL) | N=C(N)NCCC(N)C(=O)Nc1cccc2[nH]cc(/N=N/c3ccc(Br)cc3)c12 (centres unmarked) [Compound 6, (E)-2-amino-N-(3-((4-bromophenyl)diazenyl)-1H-indol-4-yl)-4-guanidinobutanamide] | 
 |  |  |  | Clc1ccc(N/N=C/c2c[nH]c3ccccc23)cc1 [Compound 7, (E)-3-((2-(4-chlorophenyl)hydrazineylidene)methyl)-1H-indole] | MIC ([1]; Acinetobacter baumannii, ATCC 1797 / ATCC BAA-1797, read-out: MIC (μM) in MDR A. baumannii ATCC 1797 0% FBS): 5 µM (≈ 1.35 µg/mL); MIC ([1]; Acinetobacter baumannii, ATCC 1797 / ATCC BAA-1797, read-out: MIC (μM) in MDR A. baumannii ATCC 1797 10% FBS): 25 µM (≈ 6.74 µg/mL); MIC ([1]; Acinetobacter baumannii, ATCC 1797 / ATCC BAA-1797, read-out: MIC (μM) in MDR A. baumannii ATCC 1797 40% FBS): 50 µM (≈ 13.5 µg/mL); MIC (MRSA ATCC BAA-44; read-out: MIC (μM) in MRSA BAA-44 10% FBS): 100 µM (≈ 27 µg/mL)
40 (≈ 9.41 µg/mL) | > 100 | > 100 | 50 (≈ 11.8 µg/mL) | C(=N\Nc1ccccc1)/c1c[nH]c2ccccc12 [Compound 8, (E)-3-((2-phenylhydrazineylidene)methyl)-1H-indole] | 
> 100 |  |  |  | O=[N+]([O-])c1ccc(N/N=C/c2c[nH]c3ccccc23)cc1 [Compound 9, (E)-3-((2-(4-nitrophenyl)hydrazineylidene)methyl)-1H-indole] | 
> 100 |  |  |  | O=C(O)c1ccc(N/N=C/c2c[nH]c3ccccc23)cc1 [Compound 10, (E)-4-(2-((1H-indol-3-yl)methylene)hydrazineyl) benzoic acid] | MIC (MRSA ATCC BAA-44; [6]): 100 µM (≈ 27.9 µg/mL)
> 100 | > 100 | > 100 | > 100 | N#CCC(=O)N/N=C/c1c[nH]c2ccccc12 [Compound 11, (E)-N′-((1H-indol-3-yl)methylene)-2-cyanoacetohydrazide] | 
12.5 (≈ 3.37 µg/mL) |  | > 100 | > 100 | Clc1ccccc1N/N=C/c1c[nH]c2ccccc12 [Compound 12, (E)-3-((2-(2-chlorophenyl)hydrazineylidene)methyl)-1H-indole] | MIC (MRSA ATCC BAA-44; [6]): 25 µM (≈ 6.74 µg/mL)
5 (≈ 1.26 µg/mL) | 100 (≈ 25.1 µg/mL) | 100 (≈ 25.1 µg/mL) | > 100 | Oc1cccc2[nH]cc(/C=N/Nc3ccccc3)c12 [Compound 13, (E)-3-((2-phenylhydrazineylidene)methyl)-1H-indol-4-ol] | 
3 (≈ 1.33 µg/mL) | > 100 | > 100 | > 100 | N=C(N)NCCC[C@H](N)C(=O)Oc1cccc2[nH]cc(/C=N/Nc3ccc(Cl)cc3)c12 [Compound 16, (E)-3-((2-(4-chlorophenyl)hydrazineylidene)methyl)-1H-indol-4-yl argininate] | 
3 (≈ 1.15 µg/mL) |  |  | > 100 | CC(C)(C)OC(=O)Nc1cccc2[nH]cc(/C=N/Nc3ccc(Cl)cc3)c12 [Compound 18] | MIC [1, 7]: > 100 µM; MIC [1, 8]: 3 µM (≈ 1.15 µg/mL); MIC (MRSA ATCC BAA-44; MRSA ATCC BAA-44, serum not stated, read-out: MIC): 12.5 µM (≈ 4.81 µg/mL); MIC (MRSA ATCC BAA-44; [6]): 12.5 µM (≈ 4.81 µg/mL)
> 100 | > 100 |  | > 100 | C(=N\Nc1ncccn1)/c1c[nH]c2ccccc12 [Compound 19, (E)-3-((2-(pyrimidin-2-yl)hydrazineylidene)methyl)-1H-indole] | 
25 (≈ 8.25 µg/mL) |  |  | > 100 | Oc1cccc2[nH]cc(/C=N/Nc3ccc(Br)cc3)c12 [Compound 20, (E)-3-((2-(4-bromophenyl)hydrazineylidene)methyl)-1H-indol-4-ol] | MIC (MRSA ATCC BAA-44; [9]): > 100 µM; MIC (MRSA ATCC BAA-44; [6]): 25 µM (≈ 8.25 µg/mL)
25 (≈ 6.73 µg/mL) |  |  | > 100 | Oc1cccc2[nH]cc(/C=N/Nc3ccc(F)cc3)c12 [Compound 21, (E)-3-((2-(4-fluorophenyl)hydrazineylidene)methyl)-1H-indol-4-ol] | MIC (MRSA ATCC BAA-44; [9]): > 100 µM; MIC (MRSA ATCC BAA-44; [6]): 25 µM (≈ 6.73 µg/mL)
25 (≈ 10.7 µg/mL) |  |  | > 100 | CCCCCC(=O)Oc1cccc2[nH]cc(/C=N/Nc3ccc(Br)cc3)c12 [Compound 22, (E)-3-((2-(4-bromophenyl)hydrazineylidene)methyl)-1H-indol-4-yl hexanoate] | MIC (MRSA ATCC BAA-44; [9]): > 100 µM; MIC (MRSA ATCC BAA-44; [6]): 25 µM (≈ 10.7 µg/mL)
12.5 |  |  |  | Brc1ccc(N/N=C/c2c[nH]c3ccc(Br)cc23)cc1 [Compound 23, (E)-1-((5-bromo-1H-indol-3-yl)methylene)-2-(4-bromophenyl)hydrazin-1-ium chloride] | MIC ([1]; Acinetobacter baumannii, ATCC 1797 / ATCC BAA-1797, in human serum (note in the cell of the 40% FBS column), read-out: MIC (μM) in MDR A. baumannii ATCC 1797): < 100 µM
< 100 |  |  | > 100 | CC(=O)n1cc(/C=N/Nc2ccc(Cl)cc2)c2ccccc21 [Compound 24, (E)-1-(3-((2-(4-chlorophenyl)hydrazineylidene)methyl)-1H-indol-1-yl)ethan-1-one] | 
25 (≈ 9.16 µg/mL) |  |  | 100 (≈ 36.6 µg/mL) | N#Cc1ccc(N/N=C/c2c[nH]c3cccc(OCc4ccccc4)c23)cc1 [Compound 28] | 
> 100 |  |  | > 100 | O=S(=O)(N/N=C/c1c[nH]c2cccc(OCc3ccccc3)c12)c1ccccc1 [Compound 29, (E)-N′-((4-(benzloxy)-1H-indol-3-yl)methylene)benzenesulfonohydrazide] | 
> 100 | > 100 | > 100 | > 100 | COc1ccc(N/N=C/c2c[nH]c3cccc(OCc4ccccc4)c23)cc1 [Compound 30, (E)-4-(benzyloxy)-3-((2-(4-methoxyphenyl) hydrazineylidene)methyl)-1H-indole] | MIC [1, 7]: 100 µM; MIC [1, 8]: 20 µM (≈ 7.43 µg/mL)
> 100 |  |  |  | Clc1ccc(N/N=C/c2c[nH]c3cccc(OCc4ccccc4)c23)c(Cl)c1 [Compound 32, (E)-4-(benzyloxy)-3-((2-(2,4-dichlorophenyl)hydrazineylidene)methyl)-1H-indole] | 
> 100 |  |  | > 100 | Nc1cccc2c(S(=O)(=O)N/N=C/c3c[nH]c4cccc(OCc5ccccc5)c34)cccc12 [Compound 33, (E)-5-amino-N′-((4-(benzyloxy)-1H-indol-3-yl)methylene)naphthalene-1-sulfonohydrazide] | MIC (MRSA ATCC BAA-44; [6]): > 100 µM

SMILES | MIC [1, 2] [µM] | MIC (MRSA ATCC BAA-44; [3]) [µM] | MIC [1, 4] [µM] | MIC [1, 5] [µM] | further results
CC(C)(C)OC(=O)N[C@@H](CCCNC(=N)N)C(=O)Oc1cccc2[nH]cc(/C=N/Nc3ccc(Cl)cc3)c12 [Compound 17, (E)-3-((2-(4-chlorophenyl)hydrazineylidene)methyl)-1H-indol-4-yl (tert-butoxycarbonyl) argininate] | > 100 | > 100 | > 100 | > 100 | 
Fc1ccc(N/N=C/c2c[nH]c3cccc(OCc4ccccc4)c23)cc1 [Compound 31, (E)-4-(benzyloxy)-3-((2-(4-fluorophenyl)hydrazineylidene)methyl)-1H-indole] |  | ~100 (≈ 35.9 µg/mL) |  |  | MIC ([1]; 0% FBS, read-out: MIC (μM) in MDR A. baumannii ATCC 1797 0% FBS): 12.5 µM (≈ 4.49 µg/mL)
